pKd: −log10 of the molar value. Residues, ends and D or L forms follow the SMILES beside them. *: point of attachment. Dansyl = CN(C)c1cccc2c(S(=O)(=O)*)cccc12
Columns and labels:
[1] = molecular target: T1, SEVI (aggregated semen enhancer of virus infection) (Homo sapiens, UniProt P15309); experiment: Dansyl fluorescence binding study with SEVI
T1 construct: SEVI is the aggregated portion of the human protein that promotes infectivity
T1 sequence (P15309 248-286 limits assumed): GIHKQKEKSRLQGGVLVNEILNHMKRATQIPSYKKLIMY
Description: FIG. 1A is a graph of fluorescence spectra of a first dansylated peptide according to the present invention in a binding study with PAP and SEVI at a first concentration;
FIG. 1B is a graph of fluorescence spectra of the first dansylated peptide according to the present invention in a binding study with PAP and SEVI at a first concentration incubated for 24 hours;
FIG. 2A is a graph of fluorescence spectra of a first dansylated peptide according to the present invention in a binding study with PAP and SEVI at a second concentration; and
FIG. 2B is a graph of fluorescence spectra of a second dansylated peptide according to the present invention in a binding study with PAP and SEVI at a second concentration.
Dansyl is the fluorescent dye that is attached to peptides. A change in Dansyl fluorescence indicates change in the environment, i.e. binding. The physiological concentration of PAP and SEVI is 5 micromolar.

[2] = Preliminary toxicity studies

CC[C@H](C)[C@H](NC(=O)[C@H](CCC(=O)O)NC(=O)[C@H](CCC(N)=O)NC(=O)[C@@H](NC(=O)[C@@H](NC(=O)[C@H](CCC(=O)O)NC(=O)[C@H](CCC(=O)O)NC(=O)[C@H](Cc1ccccc1)NS(=O)(=O)c1cccc2c(N(C)C)cccc12)[C@@H](C)CC)C(C)C)C(=O)N[C@@H](CCC(=O)O)C(=O)N[C@@H](CC(=O)O)C(=O)N[C@@H](Cc1ccccc1)C(=O)N[C@@H](CC(C)C)C(=O)N[C@@H](CCC(=O)O)C(=O)N[C@@H](CC(N)=O)C(=O)N[C@@H](CC(C)C)C(=O)N[C@H](C(N)=O)C(C)C [Peptide 1, FEEIVQEIEDFLENLV] (Dansyl-FEEIVQEIEDFLENLV-NH2)
pKd [1]: > 5.30
toxicity [2]: non-toxic

CC[C@H](C)[C@H](NC(=O)CNS(=O)(=O)c1cccc2c(N(C)C)cccc12)C(=O)NCC(=O)N[C@@H](C)C(=O)N[C@H](C(=O)N[C@@H](CC(C)C)C(=O)N[C@@H](CCC(=O)O)C(=O)N[C@H](C(=O)N[C@@H](CC(C)C)C(=O)N[C@H](C(=O)N[C@H](C(=O)NCC(=O)N[C@@H](CC(C)C)C(=O)N1CCC[C@H]1C(=O)N[C@@H](C)C(=O)N[C@@H](CC(C)C)C(=O)N[C@H](C(=O)N[C@@H](CO)C(=O)N[C@@H](Cc1c[nH]c2ccccc12)C(=O)N[C@H](C(=O)N[C@@H](CCC(=O)O)C(=O)N[C@@H](CCC(=O)O)C(=O)N[C@@H](CCC(=O)O)C(=O)N[C@@H](CCC(=O)O)C(=O)N[C@@H](CCC(N)=O)C(=O)N[C@@H](CCC(N)=O)C(N)=O)[C@@H](C)CC)[C@@H](C)CC)[C@@H](C)O)[C@@H](C)O)C(C)C)C(C)C [Peptide 2]
toxicity [2]: non-toxic

Source: patent US10695399B2, “Peptides for prevention of HIV infection” (SYRACUSE UNIVERSITY, priority 2017, dated 2020)
